Laboratory results as given in ChEMBL document CHEMBL2390855, “Labdane-type diterpenoids from the fruits of Vitex trifolia” (J Nat Prod, 2013).

Assays:
Type in all cases: functional, cell-based
[1] = test system: A549; assay: Cytotoxicity against human A549 cells after 72 hrs by MTT assay; settings: A549, 72 h
[2] = test system: HL-60; assay: Cytotoxicity against human HL60 cells after 72 hrs by MTT assay; settings: HL-60, 72 h
[3] = test system: HCT-116; assay: Cytotoxicity against human HCT116 cells after 72 hrs by MTT assay; settings: HCT-116, 72 h
[4] = test system: ZR-75-30; assay: Cytotoxicity against human ZR75-30 cells after 72 hrs by MTT assay; settings: ZR-75-30, 72 h

Measured: IC50

C[C@@H]1C[C@@H](O)[C@H]2C(C)(C)CCC[C@]2(C)[C@@]1(O)CCC1=CC(=O)OC1
> 5 µg/mL: [1] | [2] | [3] | [4]

C[C@@H]1CC=C2C(C)(C)CCC[C@]2(C)[C@@]12CC[C@]1(COC(=O)C1)O2 (relative stereo)
> 5 µg/mL: [1] | [2] | [3] | [4]

CC1=C(CC[C@@H](C)C(=O)CCC2=CC(=O)OC2)C(C)(C)CCC1
> 5 µg/mL: [1] | [2] | [3] | [4]

CO[C@@H]1C[C@@]2(CC[C@@]3(O2)[C@H](C)CC[C@H]2C(C)(C)[C@@H](OC(C)=O)CC[C@@]23C)[C@H](OC)O1 (relative stereo)
> 5 µg/mL: [1] | [2] | [3] | [4]

C[C@@H]1C[C@@H](O)[C@H]2C(C)(C)CCC[C@]2(C)[C@@]12CC[C@]1(COC(=O)C1)O2 (relative stereo)
> 5 µg/mL: [1] | [2] | [3] | [4]

CC(=O)O[C@@H]1C[C@@H](C)[C@](O)(CCc2ccoc2)[C@@]2(C)CCCC(C)(C)[C@H]12 [ROTUNDIFURAN]
> 5 µg/mL: [1] | [2] | [3] | [4]

CC(=O)O[C@@H]1C[C@@H](C)[C@](O)(CCC2=CC(=O)OC2O)[C@@]2(C)CCCC(C)(C)[C@H]12 (stereo partly drawn) [VITEAGNUSIN I]
> 5 µg/mL: [1] | [2] | [3] | [4]

CO[C@H]1C[C@@]2(CC[C@@]3(O2)[C@H](C)CC[C@H]2C(C)(C)[C@@H](OC(C)=O)CC[C@@]23C)[C@H](OC)O1 [VITEXTRIFOLIN B]
> 5 µg/mL: [1] | [2] | [3] | [4]

CC(=O)O[C@@H]1C[C@@H](C)[C@]2(CC[C@]3(COC(=O)C3)O2)[C@@]2(C)CCCC(C)(C)[C@H]12 [PREVITEXILACTONE]
> 5 µg/mL: [1] | [2] | [3] | [4]

C[C@@H]1CC=C2C(C)(C)CCC[C@]2(C)[C@@]1(O)CCC1=CC(=O)OC1 (relative stereo)
> 5 µg/mL: [1] | [2] | [3] | [4]

CC(=O)O[C@@H]1C[C@@H](C)[C@](O)(CCC2=CC(=O)OC2)[C@@]2(C)CCCC(C)(C)[C@H]12 [VITEXILACTONE]
> 5 µg/mL: [1] | [2] | [3] | [4]

CC(=O)O[C@@H]1CC(C)=C(CCC2=CC(=O)OC2)[C@@]2(C)CCCC(C)(C)[C@H]12 (relative stereo)
> 5 µg/mL: [1] | [2] | [3] | [4]
